Data set [1] can be described thus: Solubility in PBS. The format is physicochemical. An outline of the steps:
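Read-out is the HPLC peak area of the supernatant from ultracentrifuged PBS solution, scaled against a 50 μM peptide DMSO injection; value reported as [(PBS area)/(DMSO area)]*50 uM.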

Data set [2] deals with T1, full-length beta-Catenin (Uniprot ID P35222) (Homo sapiens, UniProt P35222).
T1 construct: 10 nM full-length beta-Catenin (Uniprot ID P35222)
T1 sequence (P35222 1-781): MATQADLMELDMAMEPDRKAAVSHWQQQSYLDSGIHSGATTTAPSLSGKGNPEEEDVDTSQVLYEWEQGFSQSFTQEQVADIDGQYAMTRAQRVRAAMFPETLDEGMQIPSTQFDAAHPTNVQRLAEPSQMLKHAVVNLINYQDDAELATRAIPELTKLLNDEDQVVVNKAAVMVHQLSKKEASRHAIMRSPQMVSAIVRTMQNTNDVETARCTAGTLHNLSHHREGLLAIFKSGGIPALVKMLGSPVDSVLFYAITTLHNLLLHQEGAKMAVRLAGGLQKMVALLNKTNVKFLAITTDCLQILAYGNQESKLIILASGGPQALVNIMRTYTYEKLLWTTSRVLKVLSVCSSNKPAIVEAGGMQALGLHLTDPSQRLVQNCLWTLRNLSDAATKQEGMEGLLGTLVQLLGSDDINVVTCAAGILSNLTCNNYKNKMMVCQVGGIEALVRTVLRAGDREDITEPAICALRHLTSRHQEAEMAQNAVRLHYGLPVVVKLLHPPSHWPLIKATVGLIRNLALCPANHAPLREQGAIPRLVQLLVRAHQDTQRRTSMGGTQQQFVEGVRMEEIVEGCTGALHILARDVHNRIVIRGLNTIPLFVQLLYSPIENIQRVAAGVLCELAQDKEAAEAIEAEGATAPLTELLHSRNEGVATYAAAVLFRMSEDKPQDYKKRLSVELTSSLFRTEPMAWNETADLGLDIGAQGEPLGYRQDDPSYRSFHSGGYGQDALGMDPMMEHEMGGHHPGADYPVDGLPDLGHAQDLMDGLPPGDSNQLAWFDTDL
Nature of the data set: Fluorescence polarization IC50 (beta-catenin / 5FAM-TCF4 10-53 competition). Particulars: fluorescence polarization; read-out: beta-Catenin FP IC50. The format is binding.

This is an account of results in patent US20240116985A1, “STAPLED PEPTIDES AND METHODS THEREOF” (priority 2020, published 2024).

Structures are written as SMILES. Values after ≈ are worked out from the molar mass of the structure shown. Read-outs that look alike come from different tables or passages of the source.

`CC(=O)N1CCC[C@]12CC=CCCCC1(CCCC=CCCCCCC[C@@](C)(C(=O)N[C@@H](Cc3ccsc3)C(=O)N[C@@H](Cc3csc4ccccc34)C(=O)N[C@@H](CO)C(N)=O)NC(=O)[C@H](CC(C)C)NC(=O)[C@H](Cc3ccccc3)NC(=O)[C@H](C)NC(=O)[C@H](C)NC(=O)[C@H](CC(=O)O)NC(=O)[C@H](CC(=O)O)NC1=O)NC(=O)[C@H](CC(C)(C)C)NC(=O)[C@H](CC(=O)O)NC2=O` (stereo partly drawn) [I-1190, Ac-PL3-Asp-Npg-B5-Asp-Asp-Ala-Ala-Phe-Leu-S8-3Thi-BztA-Ser-NH2]: the “Solubility” value in data set [1] came to 10 µM (≈ 18.3 µg/mL). Further, the IC50 in data set [2] stood at 58.5 nM.

As for `CC(=O)N1CCC[C@]12CC=CCCCC1(CCCC=CCCCCCC[C@@](C)(C(=O)N[C@@H](Cc3ccsc3)C(=O)N[C@@H](Cc3csc4ccccc34)C(=O)N[C@H](C(N)=O)[C@@H](C)O)NC(=O)[C@H](CC(C)C)NC(=O)[C@H](Cc3ccccc3)NC(=O)[C@H](C)NC(=O)[C@H](C)NC(=O)[C@H](CC(=O)O)NC(=O)[C@H](CC(=O)O)NC1=O)NC(=O)[C@H](CC(C)(C)C)NC(=O)[C@H](CC(=O)O)NC2=O` (stereo partly drawn) [I-1191, Ac-PL3-Asp-Npg-B5-Asp-Asp-Ala-Ala-Phe-Leu-S8-3Thi-BztA-Thr-NH2], in data set [1], the “Solubility” value was 10 µM (≈ 18.5 µg/mL). Besides, in data set [2], the IC50 was 38.5 nM.

With `CC(=O)N1CCC[C@]12CC=CCCCC1(CCCC=CCCCCCC[C@@](C)(C(=O)N[C@@H](Cc3ccccc3Cl)C(=O)N[C@@H](Cc3csc4ccccc34)C(=O)N[C@@H](Cc3c[nH]nn3)C(N)=O)NC(=O)[C@H](CC(C)C)NC(=O)[C@H](Cc3ccccc3)NC(=O)[C@H](C)NC(=O)[C@H](C)NC(=O)[C@H](CC(=O)O)NC(=O)[C@H](CC(=O)O)NC1=O)NC(=O)[C@H](CC(C)(C)C)NC(=O)[C@H](CC(=O)O)NC2=O` (stereo partly drawn) [I-1192, Ac-PL3-Asp-Npg-B5-Asp-Asp-Ala-Ala-Phe-Leu-S8-2C1F-BztA-4TriA-NH2], the “Solubility” value in data set [1] is 10 µM (≈ 19.1 µg/mL). The IC50 in data set [2] worked out at 81.5 nM.

Consider `CC(=O)N1CCC[C@]12CC=CCCCC1(CCCC=CCCCCCC[C@@](C)(C(=O)N[C@@H](Cc3ccsc3)C(=O)N[C@@H](Cc3csc4ccccc34)C(=O)N[C@@H](Cc3c[nH]nn3)C(N)=O)NC(=O)[C@H](CC(C)C)NC(=O)[C@H](Cc3ccccc3)NC(=O)[C@H](C)NC(=O)[C@H](C)NC(=O)[C@H](CC(=O)O)NC(=O)[C@H](CC(=O)O)NC1=O)NC(=O)[C@H](CC(C)(C)C)NC(=O)[C@H](CC(=O)O)NC2=O` (stereo partly drawn) [I-1193, Ac-PL3-Asp-Npg-B5-Asp-Asp-Ala-Ala-Phe-Leu-S8-3Thi-BztA-4TriA-NH2], for which, in data set [1], the “Solubility” value came to 10 µM (≈ 18.8 µg/mL). Besides, the IC50 in data set [2] was found to be 78.5 nM.

As for `CC(=O)N1CCC[C@]12CC=CCCCC1(CCCC=CCCCCCC[C@@](C)(C(=O)N[C@@H](Cc3ccccc3Cl)C(=O)N[C@@H](Cc3csc4ccccc34)C(=O)N[C@@H](Cc3c[nH]cn3)C(N)=O)NC(=O)[C@H](CC(C)C)NC(=O)[C@H](Cc3ccccc3)NC(=O)[C@H](C)NC(=O)[C@H](C)NC(=O)[C@H](CC(=O)O)NC(=O)[C@H](CC(=O)O)NC1=O)NC(=O)[C@H](CC(C)(C)C)NC(=O)[C@H](CC(=O)O)NC2=O` (stereo partly drawn) [I-1194, Ac-PL3-Asp-Npg-B5-Asp-Asp-Ala-Ala-Phe-Leu-S8-2C1F-BztA-His-NH2], in data set [1], the “Solubility” value was found to be 10 µM (≈ 19.1 µg/mL). In addition, in data set [2], the IC50 was found to be 66.5 nM.

In the case of `CC(=O)N1CCC[C@]12CC=CCCCC1(CCCC=CCCCCCC[C@@](C)(C(=O)N[C@@H](Cc3ccccc3Cl)C(=O)N[C@@H](Cc3csc4ccccc34)C(=O)N[C@@H](CCO)C(N)=O)NC(=O)[C@H](CC(C)C)NC(=O)[C@H](Cc3ccccc3)NC(=O)[C@H](C)NC(=O)[C@H](C)NC(=O)[C@H](CC(=O)O)NC(=O)[C@H](CC(=O)O)NC1=O)NC(=O)[C@H](CC(C)(C)C)NC(=O)[C@H](CC(=O)O)NC2=O` (stereo partly drawn) [I-1196, Ac-PL3-Asp-Npg-B5-Asp-Asp-Ala-Ala-Phe-Leu-S8-2C1F-BztA-Hse-NH2], the “Solubility” value in data set [1] was found to be 10 µM (≈ 18.8 µg/mL). The IC50 in data set [2] turned out to be 85 nM.

For the compound `CC(=O)N1CCC[C@]12CC=CCCCC1(CCCC=CCCCCCC[C@@](C)(C(=O)N[C@@H](Cc3ccsc3)C(=O)N[C@@H](Cc3csc4ccccc34)C(=O)N[C@@H](CCO)C(N)=O)NC(=O)[C@H](CC(C)C)NC(=O)[C@H](Cc3ccccc3)NC(=O)[C@H](C)NC(=O)[C@H](C)NC(=O)[C@H](CC(=O)O)NC(=O)[C@H](CC(=O)O)NC1=O)NC(=O)[C@H](CC(C)(C)C)NC(=O)[C@H](CC(=O)O)NC2=O` (stereo partly drawn) [I-1197, Ac-PL3-Asp-Npg-B5-Asp-Asp-Ala-Ala-Phe-Leu-S8-3Thi-BztA-Hse-NH2], the “Solubility” value in data set [1] came out at 10 µM (≈ 18.5 µg/mL). In addition, the IC50 in data set [2] is 44 nM.

Turning to `CC(=O)N1CCC[C@]12CC=CCCCC1(CCCC=CCCCCCC[C@@](C)(C(=O)N[C@@H](Cc3ccccc3Cl)C(=O)N[C@@H](Cc3csc4ccccc34)C(=O)N[C@H](CCC(N)=O)C(N)=O)NC(=O)[C@H](CC(C)C)NC(=O)[C@H](Cc3ccccc3)NC(=O)[C@H](C)NC(=O)[C@H](C)NC(=O)[C@H](CC(=O)O)NC(=O)[C@H](CC(=O)O)NC1=O)NC(=O)[C@H](CC(C)(C)C)NC(=O)[C@H](CC(=O)O)NC2=O` (stereo partly drawn) [I-1198, Ac-PL3-Asp-Npg-B5-Asp-Asp-Ala-Ala-Phe-Leu-S8-2C1F-BztA-dGln-NH2], in data set [1] (Solubility (uM)), the concentration in solution (Solubility) came to 47 µM (≈ 89.4 µg/mL). For the same compound, the IC50 in data set [2] was found to be 65 nM.

Compound `CC(=O)N1CCC[C@]12CC=CCCCC1(CCCC=CCCCCCC[C@@](C)(C(=O)N[C@@H](Cc3ccsc3)C(=O)N[C@@H](Cc3csc4ccccc34)C(=O)N[C@H](CCC(N)=O)C(N)=O)NC(=O)[C@H](CC(C)C)NC(=O)[C@H](Cc3ccccc3)NC(=O)[C@H](C)NC(=O)[C@H](C)NC(=O)[C@H](CC(=O)O)NC(=O)[C@H](CC(=O)O)NC1=O)NC(=O)[C@H](CC(C)(C)C)NC(=O)[C@H](CC(=O)O)NC2=O` (stereo partly drawn) [I-1199, Ac-PL3-Asp-Npg-B5-Asp-Asp-Ala-Ala-Phe-Leu-S8-3Thi-BztA-dGln-NH2] gave a Solubility in data set [1] (Solubility (uM)) of 19 µM (≈ 35.6 µg/mL). Further, the IC50 in data set [2] came out at 44.5 nM.

In the case of `CC(=O)N1CCC[C@]12CC=CCCCC1(CCCC=CCCCOC(=O)N3CC[C@@](C(=O)N[C@@H](Cc4cccc(C#N)c4)C(=O)N[C@@H](Cc4csc5ccccc45)C(=O)N[C@@H](CCC(N)=O)C(N)=O)(C3)NC(=O)[C@H](CC(C)C)NC(=O)[C@H](Cc3ccccc3)NC(=O)[C@H](C)NC(=O)[C@H](C)NC(=O)[C@H](CC(=O)O)NC(=O)[C@H](CC(=O)O)NC1=O)NC(=O)[C@H](CC(C)(C)C)NC(=O)[C@H](CC(=O)O)NC2=O` (stereo partly drawn) [I-1204, Ac-PL3-Asp-Npg-B5-Asp-Asp-Ala-Ala-Phe-Leu-PyrS2-3CNF-BztA-Gln-NH2], the “Solubility” value in data set [1] was 50 µM (≈ 96.8 µg/mL). Also, in data set [2], the IC50 was 81 nM.

For the compound `CC(=O)N1CCC[C@]12CC=CCCCC1(CCCC=CCCCOC(=O)N3CC[C@@](C(=O)N[C@@H](Cc4ccc(C#N)cc4)C(=O)N[C@@H](Cc4csc5ccccc45)C(=O)N[C@@H](CCC(N)=O)C(N)=O)(C3)NC(=O)[C@H](CC(C)C)NC(=O)[C@H](Cc3ccccc3)NC(=O)[C@H](C)NC(=O)[C@H](C)NC(=O)[C@H](CC(=O)O)NC(=O)[C@H](CC(=O)O)NC1=O)NC(=O)[C@H](CC(C)(C)C)NC(=O)[C@H](CC(=O)O)NC2=O` (stereo partly drawn) [I-1205, Ac-PL3-Asp-Npg-B5-Asp-Asp-Ala-Ala-Phe-Leu-PyrS2-4CNF-BztA-Gln-NH2], the “Solubility” value in data set [1] is 50 µM (≈ 96.8 µg/mL). In addition, the IC50 in data set [2] is 987 nM.

In turn, `CC(=O)N1CCC[C@]12CC=CCCCC1(CCCC=CCCCOC(=O)N3CC[C@@](C(=O)N[C@@H](Cc4ccsc4)C(=O)N[C@@H](Cc4csc5ccccc45)C(=O)N[C@@H](CCC(N)=O)C(N)=O)(C3)NC(=O)[C@H](CC(N)=O)NC(=O)[C@H](Cc3ccccc3)NC(=O)[C@H](C)NC(=O)[C@H](C)NC(=O)[C@H](CC(=O)O)NC(=O)[C@H](CO)NC1=O)NC(=O)[C@H](CC(C)(C)C)NC(=O)[C@H](CC(=O)O)NC2=O` (stereo partly drawn) [I-1208, Ac-PL3-Asp-Npg-B5-Ser-Asp-Ala-Ala-Phe-Asn-PyrS2-3Thi-BztA-Gln-NH2] returned a Solubility in data set [1] (Solubility (uM)) of 44 µM (≈ 83.2 µg/mL). Further, the IC50 in data set [2] is 349 nM.

As to `CC(=O)N1CCC[C@]12CC=CCCCC1(CCCC=CCCCOC(=O)N3CC[C@@](C(=O)N[C@@H](Cc4ccsc4)C(=O)N[C@@H](Cc4csc5ccccc45)C(=O)N[C@@H](CCC(N)=O)C(N)=O)(C3)NC(=O)[C@H](CC(C)C)NC(=O)[C@H](Cc3ccccc3)NC(=O)[C@H](C)NC(=O)[C@H](C)NC(=O)[C@H](CC(=O)O)NC(=O)[C@H](CO)NC1=O)NC(=O)[C@H](CC(C)(C)C)NC(=O)[C@H](CC(=O)O)NC2=O` (stereo partly drawn) [I-1209, Ac-PL3-Asp-Npg-B5-Ser-Asp-Ala-Ala-Phe-Leu-PyrS2-3Thi-BztA-Gln-NH2], the concentration in solution in data set [1] (Solubility (uM)) (Solubility) was 16 µM (≈ 30.2 µg/mL). The IC50 in data set [2] was 479 nM.

Broadly, the Solubility is the concentration that dissolves in the medium under given conditions. By IC50 is commonly meant the point on the concentration scale where inhibition reaches its midpoint.
